Values of other authors in US20260174914A1, “METHOD OF TREATING PSMA-EXPRESSING CANCERS” (ENDOCYTE, INC., priority 2020, published 2026).

Q: For “XOMA 089: fully human monoclonal antibody that specifically binds and neutralizes TGF-beta 1 and 2 ligands”, which “cross-reactivity with rodent TGF-β” value (rodent TGF-β) is on record?
A: Its value is “cross-reacts”.

Q: And the “cross-reactivity with cynomolgus monkey TGF-β” value (cynomolgus monkey TGF-β)?
A: Its value is “cross-reacts”.
